In patent publication US20150105252A1, “SUBSTITUTED PYRAZOLES AS HERBICIDES” (E I DU PONT DE NEMOURS AND COMPANY, priority 2013, published 2015):

Legend:
Test in all cases: Test C postemergence
corn = format: in vivo, Zea mays
How it was run: (§1)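 Seeds were sown in a loam soil–sand blend and sprayed preemergence with compounds formulated in a non-phytotoxic solvent mixture containing surfactant. Postemergence plants, grown in peat/vermiculite medium to 2–18 cm (1- to 4-leaf stage), received the same formulation. After 13 to 15 days in a greenhouse, injury was rated visually against controls (0 = no effect, 100 = complete control).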

ryegrass, Italian = format: in vivo, Lolium multiflorum
How it was run: as §1

pigweed = format: in vivo, Amaranthus retroflexus
How it was run: as §1

lambsquarters = format: in vivo, Chenopodium album
How it was run: as §1

oat, wild = format: in vivo, Avena fatua
How it was run: as §1

ragweed = format: in vivo, Ambrosia elation
How it was run: as §1

soybean = format: in vivo, Glycine max
How it was run: as §1

barnyardgrass = format: in vivo, Echinochloa crus-galli
How it was run: as §1

oilseed rape = format: in vivo, Brassica napus
How it was run: as §1

galium = format: in vivo, Galium aparine
How it was run: as §1

waterhemp = format: in vivo, Amaranthus rudis
How it was run: as §1

kochia = format: in vivo, Kochia scoparia
How it was run: as §1

wheat = format: in vivo, Triticum aestivum
How it was run: as §1

nutsedge, yellow = format: in vivo, Cyperus esculentus
How it was run: as §1

foxtail, giant = format: in vivo, Setaria faberii
How it was run: as §1

[1] = Postemergence, 31 g ai/ha, visually evaluated after 13 to 15 days
[2] = postemergence, 62 g ai/ha, scale 0 to 100
[3] = postemergence, 250 g ai/ha, scale 0 to 100 (0 no effect, 100 complete control)
[4] = postemergence, 125 g ai/ha, scale 0 to 100, 0 no effect, 100 complete control

Question: `CCc1cc(C(=O)NC(C)C)nn1Cc1ccnc(C(F)(F)F)c1` [Compound 103] was tested. Which “Plant response rating (scale of 0 to 100 where 0 is no effect and 100 is complete control), Corn” value (corn; [1]) did it give?
Answer: Its value is 10.

Question: And the “Corn plant response rating” value (corn; [2])?
Answer: The value was 15.

Question: What about the “Plant response rating, Corn” value (corn; [3]) of the same compound?
Answer: Its value is 95.

Question: And the “Plant response rating, Corn” value (corn; [4])?
Answer: The value was 35.

Question: And the “Plant response rating (scale of 0 to 100 where 0 is no effect and 100 is complete control), Ryegrass, Italian” value (ryegrass, Italian; [1])?
Answer: Its value is 5.

Question: And the “Ryegrass, Italian plant response rating” value (ryegrass, Italian; [2])?
Answer: Its value is 5.

Question: What about the “Plant response rating, Ryegrass, Italian” value (ryegrass, Italian; [3]) of the same compound?
Answer: Its value is 45.

Question: What about the “Plant response rating, Ryegrass, Italian” value (ryegrass, Italian; [4]) of the same compound?
Answer: The value was 5.

Question: And the “Plant response rating (scale of 0 to 100 where 0 is no effect and 100 is complete control), Pigweed” value (pigweed; [1])?
Answer: Its value is 50.

Question: What about the “Pigweed plant response rating” value (pigweed; [2]) of the same compound?
Answer: The value was 50.

Question: And the “Plant response rating, Pigweed” value (pigweed; [3])?
Answer: The value was 80.

Question: What about the “Plant response rating, Pigweed” value (pigweed; [4]) of the same compound?
Answer: The value was 65.

Question: And the “Plant response rating (scale of 0 to 100 where 0 is no effect and 100 is complete control), Lambsquarters” value (lambsquarters; [1])?
Answer: Its value is 65.

Question: And the “Lambsquarters plant response rating” value (lambsquarters; [2])?
Answer: Its value is 70.

Question: What about the “Plant response rating, Lambsquarters” value (lambsquarters; [3]) of the same compound?
Answer: The value was 90.

Question: And the “Plant response rating, Lambsquarters” value (lambsquarters; [4])?
Answer: Its value is 75.

Question: What about the “Plant response rating (scale of 0 to 100 where 0 is no effect and 100 is complete control), Oat, Wild” value (oat, wild; [1]) of the same compound?
Answer: Its value is 5.

Question: What about the “Oat, Wild plant response rating” value (oat, wild; [2]) of the same compound?
Answer: Its value is 5.

Question: And the “Plant response rating, Oat, Wild” value (oat, wild; [3])?
Answer: Its value is 50.

Question: What about the “Plant response rating, Oat, Wild” value (oat, wild; [4]) of the same compound?
Answer: The value was 50.

Question: What about the “Plant response rating (scale of 0 to 100 where 0 is no effect and 100 is complete control), Ragweed” value (ragweed; [1]) of the same compound?
Answer: The value was 35.

Question: And the “Ragweed plant response rating” value (ragweed; [2])?
Answer: The value was 70.

Question: What about the “Plant response rating, Ragweed” value (ragweed; [3]) of the same compound?
Answer: Its value is 90.

Question: What about the “Plant response rating, Ragweed” value (ragweed; [4]) of the same compound?
Answer: The value was 80.

Question: What about the “Plant response rating (scale of 0 to 100 where 0 is no effect and 100 is complete control), Soybean” value (soybean; [1]) of the same compound?
Answer: The value was 45.

Question: And the “Soybean plant response rating” value (soybean; [2])?
Answer: Its value is 70.

Question: What about the “Plant response rating, Soybean” value (soybean; [3]) of the same compound?
Answer: Its value is 98.

Question: And the “Plant response rating, Soybean” value (soybean; [4])?
Answer: The value was 95.

Question: What about the “Plant response rating (scale of 0 to 100 where 0 is no effect and 100 is complete control), Barnyardgrass” value (barnyardgrass; [1]) of the same compound?
Answer: The value was 10.

Question: And the “Barnyardgrass plant response rating” value (barnyardgrass; [2])?
Answer: Its value is 15.

Question: And the “Plant response rating, Barnyardgrass” value (barnyardgrass; [3])?
Answer: The value was 95.

Question: And the “Plant response rating, Barnyardgrass” value (barnyardgrass; [4])?
Answer: Its value is 15.

Question: What about the “Plant response rating (scale of 0 to 100 where 0 is no effect and 100 is complete control), Oilseed Rape” value (oilseed rape; [1]) of the same compound?
Answer: The value was 5.

Question: What about the “Oilseed Rape plant response rating” value (oilseed rape; [2]) of the same compound?
Answer: Its value is 50.

Question: And the “Plant response rating, Oilseed Rape” value (oilseed rape; [3])?
Answer: Its value is 70.

Question: And the “Plant response rating, Oilseed Rape” value (oilseed rape; [4])?
Answer: The value was 50.

Question: What about the “Plant response rating (scale of 0 to 100 where 0 is no effect and 100 is complete control), Galium” value (galium; [1]) of the same compound?
Answer: The value was 50.

Question: What about the “Galium plant response rating” value (galium; [2]) of the same compound?
Answer: Its value is 70.

Question: And the “Plant response rating, Galium” value (galium; [3])?
Answer: The value was 80.

Question: And the “Plant response rating, Galium” value (galium; [4])?
Answer: The value was 75.

Question: What about the “Plant response rating (scale of 0 to 100 where 0 is no effect and 100 is complete control), Waterhemp” value (waterhemp; [1]) of the same compound?
Answer: The value was 55.

Question: And the “Waterhemp plant response rating” value (waterhemp; [2])?
Answer: Its value is 65.

Question: And the “Plant response rating, Waterhemp” value (waterhemp; [3])?
Answer: Its value is 90.

Question: And the “Plant response rating, Waterhemp” value (waterhemp; [4])?
Answer: Its value is 65.

Question: And the “Plant response rating (scale of 0 to 100 where 0 is no effect and 100 is complete control), Kochia” value (kochia; [1])?
Answer: The value was 85.

Question: What about the “Kochia plant response rating” value (kochia; [2]) of the same compound?
Answer: Its value is 85.

Question: What about the “Plant response rating, Kochia” value (kochia; [3]) of the same compound?
Answer: The value was 90.

Question: What about the “Plant response rating, Kochia” value (kochia; [4]) of the same compound?
Answer: The value was 85.

Question: What about the “Plant response rating (scale of 0 to 100 where 0 is no effect and 100 is complete control), Wheat” value (wheat; [1]) of the same compound?
Answer: The value was 0.

Question: What about the “Wheat plant response rating” value (wheat; [2]) of the same compound?
Answer: Its value is 5.

Question: And the “Plant response rating, Wheat” value (wheat; [3])?
Answer: The value was 15.

Question: What about the “Plant response rating, Wheat” value (wheat; [4]) of the same compound?
Answer: The value was 5.

Question: What about the “Plant response rating (scale of 0 to 100 where 0 is no effect and 100 is complete control), Nutsedge, Yellow” value (nutsedge, yellow; [1]) of the same compound?
Answer: Its value is 10.

Question: And the “Nutsedge, Yellow plant response rating” value (nutsedge, yellow; [2])?
Answer: The value was 10.

Question: What about the “Plant response rating, Nutsedge, Yellow” value (nutsedge, yellow; [3]) of the same compound?
Answer: Its value is 20.

Question: What about the “Plant response rating, Nutsedge, Yellow” value (nutsedge, yellow; [4]) of the same compound?
Answer: The value was 10.

Question: And the “Plant response rating (scale of 0 to 100 where 0 is no effect and 100 is complete control), Foxtail, Giant” value (foxtail, giant; [1])?
Answer: The value was 40.

Question: And the “Foxtail, Giant plant response rating” value (foxtail, giant; [2])?
Answer: Its value is 40.

Question: What about the “Plant response rating, Foxtail, Giant” value (foxtail, giant; [3]) of the same compound?
Answer: The value was 90.

Question: What about the “Plant response rating, Foxtail, Giant” value (foxtail, giant; [4]) of the same compound?
Answer: Its value is 60.
